Data taken from patent publication US20240101570A1 (AMGEN INC., priority 2020, published 2024).

Legend:
HCT116 WT cells = assay: HCT116 WT cell proliferation / viability (CellTiter-Glo, 6 days); assay type: cell-based; conditions: Homo sapiens, HCT-116, 144 h, HCT116 WT cells, 6 days, CellTiter-Glo; read-out: HCT-116 WT IC50
Outline: (§1)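 Viability read by CellTiter-Glo after 6-day compound exposure of MTAP-null and wild-type HCT116 cells grown in RPMI 1640 with 10% FBS. Dosing used 1:3 steps from 1 or 10 μM (8-9 points) or 1:2 steps from 10 or 50 μM (22 points); IC50 taken where fitted curve crosses 50% of control.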

HCT116 MTAP null cells = assay: HCT116 MTAP null cell proliferation / viability (CellTiter-Glo, 6 days); assay type: cell-based; conditions: HCT116-MTAP null, 144 h, HCT116 MTAP null cells, 6 days, CellTiter-Glo; read-out: HCT-116 MTAP null IC50
Outline: as §1

C[C@H](c1ncccn1)N(Cc1ccc(C#N)cn1)C(=O)c1ccc2nc(N)c3ccccc3c2c1 [Example 630, 6-amino-N-((5-cyano-2-pyridinyl)methyl)-N-((1R)-1-(2-pyrimidinyl)ethyl)-2-phenanthridinecarboxamide]
IC50 (HCT116 WT cells): 408 nM | IC50 (HCT116 MTAP null cells): 19 nM

Nc1nc2ccc(C(=O)N(Cc3ccc(C(F)(F)F)cn3)Cc3ncccn3)cc2c2cnccc12 [Example 631, 5-amino-N-(2-pyrimidinylmethyl)-N-((5-(trifluoromethyl)-2-pyridinyl)methyl)benzo[c][2,6]naphthyridine-9-carboxamide]
IC50 (HCT116 WT cells): 215 nM | IC50 (HCT116 MTAP null cells): 10 nM

CC(C)CN(Cc1ccc(C(F)(F)F)cn1)C(=O)c1ccc2nc(N)c3ccncc3c2c1 [Example 632, 5-amino-N-(2-methylpropyl)-N-((5-(trifluoromethyl)-2-pyridinyl)methyl)benzo[c][2,6]naphthyridine-9-carboxamide]
IC50 (HCT116 WT cells): 231 nM | IC50 (HCT116 MTAP null cells): 11 nM

C[C@H](c1ncccn1)N(Cc1ccc(C(F)(F)F)cn1)C(=O)c1ccc2nc(N)c3ccncc3c2c1 [Example 633, 5-amino-N-((1R)-1-(2-pyrimidinyl)ethyl)-N-((5-(trifluoromethyl)-2-pyridinyl)methyl)benzo[c][2,6]naphthyridine-9-carboxamide]
IC50 (HCT116 WT cells): 71 nM | IC50 (HCT116 MTAP null cells): 13 nM

Nc1nc2ccc(C(=O)N(Cc3ccc(C(F)(F)F)cn3)Cc3ncccc3F)cc2c2ccsc12 [Example 635, 4-amino-N-((3-fluoro-2-pyridinyl)methyl)-N-((5-(trifluoromethyl)-2-pyridinyl)methyl)thieno[2,3-c]quinoline-8-carboxamide]
IC50 (HCT116 WT cells): 1210 nM | IC50 (HCT116 MTAP null cells): 73 nM

Nc1nc2ccc(C(=O)N(Cc3ccc(C(F)(F)F)cn3)Cc3ncccn3)cc2c2ccsc12 [Example 636, 4-amino-N-(2-pyrimidinylmethyl)-N-((5-(trifluoromethyl)-2-pyridinyl)methyl)thieno[2,3-c]quinoline-8-carboxamide]
IC50 (HCT116 WT cells): 2990 nM | IC50 (HCT116 MTAP null cells): 149 nM

CC(C)CN(Cc1ccc(C(F)(F)F)cn1)C(=O)c1ccc2nc(N)c3sccc3c2c1 [Example 637, 4-amino-N-(2-methylpropyl)-N-((5-(trifluoromethyl)-2-pyridinyl)methyl)thieno[2,3-c]quinoline-8-carboxamide]
IC50 (HCT116 WT cells): 3220 nM | IC50 (HCT116 MTAP null cells): 212 nM

C[C@H](c1ncccn1)N(Cc1ccc(C(F)(F)F)cn1)C(=O)c1ccc2nc(N)c3ncncc3c2c1 [Example 638, 5-amino-N-((1R)-1-(2-pyrimidinyl)ethyl)-N-((5-(trifluoromethyl)-2-pyridinyl)methyl)pyrimido[4,5-c]quinoline-9-carboxamide]
IC50 (HCT116 WT cells): 378 nM | IC50 (HCT116 MTAP null cells): 22 nM

COC[C@H](C1CC1)N(Cc1ccc(N2CCOCC2)nn1)C(=O)c1ccc2nc(N)c3c(c2c1)COC3 [Example 641, 4-amino-N-((1S)-1-cyclopropyl-2-methoxyethyl)-N-((6-(4-morpholinyl)-3-pyridazinyl)methyl)-1,3-dihydrofuro[3,4-c]quinoline-8-carboxamide]
IC50 (HCT116 WT cells): 242 nM | IC50 (HCT116 MTAP null cells): 16 nM

CCOc1ccc(CN(CC(C)C)C(=O)c2ccc3nc(N)c4c(c3c2)COC4)nn1 [Example 642, 4-amino-N-((6-ethoxy-3-pyridazinyl)methyl)-N-(2-methylpropyl)-1,3-dihydrofuro[3,4-c]quinoline-8-carboxamide]
IC50 (HCT116 WT cells): 1300 nM | IC50 (HCT116 MTAP null cells): 41 nM

COC[C@@H](C)N(Cc1ccc(Br)nn1)C(=O)c1ccc2nc(N)c3sccc3c2c1 [Example 643, 4-amino-N-((6-bromo-3-pyridazinyl)methyl)-N-((2R)-1-methoxy-2-propanyl)thieno[2,3-c]quinoline-8-carboxamide]
IC50 (HCT116 WT cells): 1620 nM | IC50 (HCT116 MTAP null cells): 178 nM

COCC(C)(C)N(Cc1ccc(Br)nn1)C(=O)c1ccc2nc(N)c3c(c2c1)COC3 [Example 644, 4-amino-N-((6-bromo-3-pyridazinyl)methyl)-N-(1-methoxy-2-methyl-2-propanyl)-1,3-dihydrofuro[3,4-c]quinoline-8-carboxamide]
IC50 (HCT116 WT cells): > 10000 nM | IC50 (HCT116 MTAP null cells): 2790 nM

COCC(C)(C)N(Cc1ccc(Br)nn1)C(=O)c1cc2c3c(c(N)nc2cn1)COC3 [Example 645, 4-amino-N-((6-bromo-3-pyridazinyl)methyl)-N-(1-methoxy-2-methyl-2-propanyl)-1,3-dihydrofuro[3,4-c][1,7]naphthyridine-8-carboxamide]
IC50 (HCT116 WT cells): > 50000 nM | IC50 (HCT116 MTAP null cells): ≥ 50000 nM

Nc1nc2cnc(C(=O)N(Cc3ccc(C(F)(F)F)cn3)CC3CC3)cc2c2c1COC2 [Example 652, 4-amino-N-(cyclopropylmethyl)-N-((5-(trifluoromethyl)pyridin-2-yl)methyl)-1,3-dihydrofuro[3,4-c][1,7]naphthyridine-8-carboxamide]
IC50 (HCT116 WT cells): 1390 nM | IC50 (HCT116 MTAP null cells): 50 nM

C[C@H](c1ncccn1)N(Cc1ccc(C(F)(F)F)cn1)C(=O)c1ccc2nc(N)c3c(c2c1)COC3 [Example 653, 4-amino-N-((1R)-1-(2-pyrimidinyl)ethyl)-N-((5-(trifluoromethyl)-2-pyridinyl)methyl)-1,3-dihydrofuro[3,4-c]quinoline-8-carboxamide]
IC50 (HCT116 WT cells): 73 nM | IC50 (HCT116 MTAP null cells): 8 nM

C[C@H](c1ncccn1)N(Cc1ccc(C(F)(F)F)cn1)C(=O)c1ccc2nc(N)c3c(c2c1)CCCC3 [Example 654, 6-amino-N-((1R)-1-(2-pyrimidinyl)ethyl)-N-((5-(trifluoromethyl)-2-pyridinyl)methyl)-7,8,9,10-tetrahydro-2-phenanthridinecarboxamide]
IC50 (HCT116 WT cells): 171 nM | IC50 (HCT116 MTAP null cells): 9 nM

C[C@H](c1ncccn1)N(Cc1ccc(C(F)(F)F)cn1)C(=O)c1cc2c3c(c(N)nc2cc1Cl)COC3 [Example 655, 4-amino-7-chloro-N-((1R)-1-(2-pyrimidinyl)ethyl)-N-((5-(trifluoromethyl)-2-pyridinyl)methyl)-1,3-dihydrofuro[3,4-c]quinoline-8-carboxamide]
IC50 (HCT116 WT cells): 294 nM | IC50 (HCT116 MTAP null cells): 16 nM

Nc1nc2cc(Cl)c(C(=O)N(Cc3ccc(C(F)(F)F)cn3)C3CC3)cc2c2c1COC2 [Example 656, 4-amino-7-chloro-N-cyclopropyl-N-((5-(trifluoromethyl)-2-pyridinyl)methyl)-1,3-dihydrofuro[3,4-c]quinoline-8-carboxamide]
IC50 (HCT116 WT cells): 1260 nM | IC50 (HCT116 MTAP null cells): 19 nM

C[C@H](c1ncccn1)N(Cc1ccc(Br)nn1)C(=O)c1ccc2nc(N)c3c(c2c1)COC3 [Example 657, 4-amino-N-((6-bromo-3-pyridazinyl)methyl)-N-((1R)-1-(2-pyrimidinyl)ethyl)-1,3-dihydrofuro[3,4-c]quinoline-8-carboxamide]
IC50 (HCT116 WT cells): 196 nM | IC50 (HCT116 MTAP null cells): 13 nM

C[C@H](c1ncccn1)N(Cc1ccc(Br)cn1)C(=O)c1ccc2nc(N)c3c(c2c1)COC3 [Example 658, 4-amino-N-((5-bromo-2-pyridinyl)methyl)-N-((1R)-1-(2-pyrimidinyl)ethyl)-1,3-dihydrofuro[3,4-c]quinoline-8-carboxamide]
IC50 (HCT116 WT cells): 71 nM | IC50 (HCT116 MTAP null cells): 6 nM

C[C@H](c1ncccn1)N(Cc1ccc(C#N)cn1)C(=O)c1ccc2nc(N)c3c(c2c1)COC3 [Example 659, 4-amino-N-((5-cyano-2-pyridinyl)methyl)-N-((1R)-1-(2-pyrimidinyl)ethyl)-1,3-dihydrofuro[3,4-c]quinoline-8-carboxamide]
IC50 (HCT116 WT cells): 378 nM | IC50 (HCT116 MTAP null cells): 14 nM
